PubChem BioAssay AID328 (DTP/NCI, 2004)
Values joined by “and” are separate entries in the source; they are usually repeats but may differ in a detail not shown here. Identical values can stand only once. Inconclusive results and toxic doses are left out.

System: BDF1 mice, P388 leukemia ip, median survival T/C
Experiment: NCI In Vivo Anticancer Drug Screen. Data for tumor model P388 Leukemia (intraperitoneal) in B6D2F1 (BDF1) mice
Settings: endpoint: median survival time, higher = longer survival
How it was run: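 Each value expresses how treatment altered survival: treated-mouse outcome over vehicle-mouse outcome, both groups bearing the transplanted tumour.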

[1] = dose: 50.0 mg/kg/injection, schedule: Q01DX009 (ip), vehicle: Klucel (hydroxypropylcellulose) (HPC)
[2] = dose: 25.0 mg/kg/injection, schedule: Q04DX003 (ip), vehicle: Klucel (hydroxypropylcellulose) (HPC)
[3] = dose: 50.0 mg/kg/injection, schedule: Q04DX003 (ip), vehicle: Klucel (hydroxypropylcellulose) (HPC)
[4] = dose: 100.0 mg/kg/injection, schedule: Q04DX003 (ip), vehicle: Klucel (hydroxypropylcellulose) (HPC)
[5] = dose: 200.0 mg/kg/injection, schedule: Q04DX003 (ip), vehicle: Klucel (hydroxypropylcellulose) (HPC)
[6] = dose: 400.0 mg/kg/injection, schedule: Q04DX003 (ip), vehicle: Klucel (hydroxypropylcellulose) (HPC)
[7] = dose: 100.0 mg/kg/injection, schedule: Q01DX009 (ip), vehicle: saline with Tween-80
[8] = dose: 200.0 mg/kg/injection, schedule: Q01DX009 (ip), vehicle: saline with Tween-80
[9] = dose: 1.56 mg/kg/injection, schedule: Q01DX009 (ip), vehicle: saline
[10] = dose: 6.25 mg/kg/injection, schedule: Q01DX009 (ip), vehicle: saline
[11] = dose: 25.0 mg/kg/injection, schedule: Q01DX009 (ip), vehicle: saline
[12] = dose: 50.0 mg/kg/injection, schedule: Q01DX009 (ip), vehicle: saline
[13] = dose: 100.0 mg/kg/injection, schedule: Q01DX009 (ip), vehicle: saline
[14] = dose: 100.0 mg/kg/injection, schedule: Q04DX003 (ip), vehicle: saline
[15] = dose: 200.0 mg/kg/injection, schedule: Q01DX009 (ip), vehicle: saline
[16] = dose: 200.0 mg/kg/injection, schedule: Q04DX003 (ip), vehicle: saline

In the case of `CN=C(NC#N)NCCSCc1nc[nH]c1C`, the T/C (dose: 12.5 mg/kg/injection, schedule: Q01DX005 (ip), vehicle: Klucel (hydroxypropylcellulose) (HPC)) is reported as 96 % of control, the T/C (dose: 25.0 mg/kg/injection, schedule: Q01DX005 (ip), vehicle: Klucel (hydroxypropylcellulose) (HPC)) is reported as 92 % of control and 116 % of control and the T/C (dose: 50.0 mg/kg/injection, schedule: Q01DX005 (ip), vehicle: Klucel (hydroxypropylcellulose) (HPC)) is reported as 101 % of control. The T/C (dose: 100.0 mg/kg/injection, schedule: Q01DX005 (ip), vehicle: Klucel (hydroxypropylcellulose) (HPC)) was 93 % of control and 101 % of control, the T/C (dose: 200.0 mg/kg/injection, schedule: Q01DX005 (ip), vehicle: Klucel (hydroxypropylcellulose) (HPC)) was 118 % of control and the T/C (dose: 400.0 mg/kg/injection, schedule: Q01DX005 (ip), vehicle: Klucel (hydroxypropylcellulose) (HPC)) was 95 % of control.
For `CC(Br)(C(Br)c1ccccc1)[N+](=O)[O-]` (configuration not stated), the T/C [1] was 123 % of control.
In the case of `C[C@]12CCC(=O)C=C1CC[C@@H]1[C@@H]2C(=O)C[C@]2(C)C3=CC(=O)O[C@H]3C[C@@H]12`, the T/C (dose: 12.5 mg/kg/injection, schedule: Q01DX009 (ip), vehicle: Klucel (hydroxypropylcellulose) (HPC)) is reported as 109 % of control and 110 % of control, the T/C (dose: 12.5 mg/kg/injection, schedule: Q04DX003 (ip), vehicle: Klucel (hydroxypropylcellulose) (HPC)) is reported as 109 % of control and the T/C (dose: 25.0 mg/kg/injection, schedule: Q01DX009 (ip), vehicle: Klucel (hydroxypropylcellulose) (HPC)) is reported as 118 % of control and 120 % of control. For the same molecule, the T/C [2] was 113 % of control, the T/C [1] was 86 % of control and 115 % of control and the T/C [3] was 122 % of control. For the same molecule, the T/C (dose: 100.0 mg/kg/injection, schedule: Q01DX009 (ip), vehicle: Klucel (hydroxypropylcellulose) (HPC)) was 90 % of control.
With `COc1cccc2c1C(=O)c1c(OC)cccc1C2=O` the T/C [2] was 98 % of control, the T/C [3] was 97 % of control and the T/C [4] was 103 % of control. For the same molecule, the T/C [5] was 98 % of control and the T/C [6] was 97 % of control.
In the case of `Cc1cc(C)c(CN)cc1C`, the T/C (dose: 5.0 mg/kg/injection, schedule: Q04DX003 (ip), vehicle: saline with Tween-80) is reported as 100 % of control, the T/C (dose: 10.0 mg/kg/injection, schedule: Q04DX003 (ip), vehicle: saline with Tween-80) is reported as 100 % of control and the T/C (dose: 20.0 mg/kg/injection, schedule: Q04DX003 (ip), vehicle: saline with Tween-80) is reported as 100 % of control.
With `O=C(O)/C=C/c1c[nH]c(=O)[nH]c1=O` the T/C [2] was 101 % of control, the T/C [3] was 101 % of control and the T/C [4] was 115 % of control.
`O=C1NS(=O)(=O)c2ccccc21` was tested, and the T/C (dose: 50.0 mg/kg/injection, schedule: Q01DX009 (ip), vehicle: saline with Tween-80) was 100 % of control, the T/C [7] was 90 % of control and the T/C [8] was 103 % of control.
In the case of `CCC1NC(C)(C)CC1=C(C)C` (configuration not stated), the T/C [9] is reported as 104 % of control, the T/C (dose: 3.13 mg/kg/injection, schedule: Q01DX009 (ip), vehicle: saline) is reported as 104 % of control and the T/C [10] is reported as 104 % of control.
For `N#CC(C#N)c1nc2cccnc2s1`, the T/C (dose: 100.0 mg/kg/injection, schedule: Q04DX003 (ip), vehicle: saline with Tween-80) was 109 % of control and the T/C (dose: 200.0 mg/kg/injection, schedule: Q04DX003 (ip), vehicle: saline with Tween-80) was 93 % of control.
`CCOC(=O)/C=C/c1c[nH]c(=O)[nH]c1=O` was tested, and the T/C [11] was 101 % of control, the T/C [12] was 101 % of control and the T/C [13] was 101 % of control. The T/C [14] was 114 % of control, the T/C [15] was 104 % of control and the T/C [16] was 96 % of control. For the same molecule, the T/C (dose: 400.0 mg/kg/injection, schedule: Q04DX003 (ip), vehicle: saline) was 96 % of control.
`Oc1ccc(Nc2c3ccccc3nc3c2ccc2ccccc23)cc1CN(CCCl)CCCl` was tested, and the T/C (dose: 0.08 mg/kg/injection, schedule: Q01DX009 (ip), vehicle: saline) was 100 % of control, the T/C (dose: 0.12 mg/kg/injection, schedule: Q01DX009 (ip), vehicle: saline) was 90 % of control and the T/C (dose: 0.51 mg/kg/injection, schedule: Q01DX009 (ip), vehicle: saline) was 168 % of control. The T/C (dose: 0.52 mg/kg/injection, schedule: Q01DX009 (ip), vehicle: saline) was 110 % of control, the T/C (dose: 1.02 mg/kg/injection, schedule: Q01DX009 (ip), vehicle: saline) was 100 % of control and the T/C (dose: 1.1 mg/kg/injection, schedule: Q01DX009 (ip), vehicle: saline) was 163 % of control. For the same molecule, the T/C (dose: 1.17 mg/kg/injection, schedule: Q01DX009 (ip), vehicle: saline) was 100 % of control, the T/C [9] was 109 % of control and the T/C (dose: 1.65 mg/kg/injection, schedule: Q04DX003 (ip), vehicle: saline) was 159 % of control. For the same molecule, the T/C (dose: 2.1 mg/kg/injection, schedule: Q04DX003 (ip), vehicle: saline) was 100 % of control and the T/C (dose: 2.34 mg/kg/injection, schedule: Q01DX009 (ip), vehicle: saline) was 168 % of control.
For `BrC1CCCCCC(Br)C12OCCO2` (configuration not stated), the T/C [4] was 100 % of control, the T/C [5] was 95 % of control and the T/C [6] was 100 % of control.
With `CC(C)(C)C1CCC(C#N)(N=Nc2ccccc2)CC1` (configuration not stated) the T/C (dose: 50.0 mg/kg/injection, schedule: Q01DX005 (ip), vehicle: saline with Tween-80) was 102 % of control and the T/C (dose: 100.0 mg/kg/injection, schedule: Q01DX005 (ip), vehicle: saline with Tween-80) was 89 % of control.
`CC(=O)OC(C(=O)c1ccccc1)c1ccccc1` (configuration not stated) was tested, and the T/C [4] was 95 % of control, the T/C [5] was 104 % of control and the T/C [6] was 108 % of control.
For `CCC(C)OP1(=S)OCC(C)O1` (configuration not stated), the T/C (dose: 100.0 mg/kg/injection, schedule: Q04DX002 (ip), vehicle: saline with Tween-80) was 115 % of control, the T/C (dose: 200.0 mg/kg/injection, schedule: Q04DX002 (ip), vehicle: saline with Tween-80) was 106 % of control and the T/C (dose: 400.0 mg/kg/injection, schedule: Q04DX002 (ip), vehicle: saline with Tween-80) was 118 % of control.
With `Cc1ccc(OC/C=C/CS(=O)(=O)c2ccc(Cl)cc2)cc1` the T/C [4] was 95 % of control, the T/C [5] was 95 % of control and the T/C [6] was 104 % of control.
In the case of `COc1ccc(C2c3cc4c(c(OC)c3CC(CO)C2C(=O)O)OCO4)cc1OC` (configuration not stated), the T/C (dose: 9.38 mg/kg/injection, schedule: Q01DX010 (ip), vehicle: water) is reported as 95 % of control, the T/C (dose: 18.75 mg/kg/injection, schedule: Q01DX010 (ip), vehicle: water) is reported as 90 % of control and the T/C (dose: 37.5 mg/kg/injection, schedule: Q01DX010 (ip), vehicle: water) is reported as 90 % of control. For the same molecule, the T/C (dose: 50.0 mg/kg/injection, schedule: Q01DX001 (ip), vehicle: water) was 110 % of control, the T/C (dose: 75.0 mg/kg/injection, schedule: Q01DX010 (ip), vehicle: water) was 110 % of control and the T/C (dose: 100.0 mg/kg/injection, schedule: Q01DX001 (ip), vehicle: water) was 100 % of control. The T/C (dose: 150.0 mg/kg/injection, schedule: Q01DX010 (ip), vehicle: water) was 115 % of control, the T/C (dose: 200.0 mg/kg/injection, schedule: Q01DX001 (ip), vehicle: water) was 110 % of control and the T/C (dose: 400.0 mg/kg/injection, schedule: Q01DX001 (ip), vehicle: water) was 110 % of control.
In the case of `O=S1(=O)CC2(N3CCOCC3)CCCCC21` (configuration not stated), the T/C [7] is reported as 100 % of control, the T/C [8] is reported as 100 % of control and the T/C (dose: 400.0 mg/kg/injection, schedule: Q01DX009 (ip), vehicle: saline with Tween-80) is reported as 112 % of control.
`CNC1C(O)C(NC)C2OC3(O)C(=O)CC(C)OC3OC2C1O` (configuration not stated) was tested, and the T/C [10] was 112 % of control, the T/C (dose: 12.5 mg/kg/injection, schedule: Q01DX009 (ip), vehicle: saline) was 106 % of control and the T/C [11] was 97 % of control. For the same molecule, the T/C [12] was 106 % of control.
In the case of `CCCCCCCCCCCc1n(Cc2ccccc2)cc[n+]1C`, the T/C (dose: 0.75 mg/kg/injection, schedule: Q01DX009 (ip), vehicle: saline) is reported as 117 % of control, the T/C (dose: 1.5 mg/kg/injection, schedule: Q01DX009 (ip), vehicle: saline) is reported as 114 % of control and the T/C (dose: 1.5 mg/kg/injection, schedule: Q04DX003 (ip), vehicle: saline) is reported as 100 % of control. For the same molecule, the T/C (dose: 3.0 mg/kg/injection, schedule: Q01DX009 (ip), vehicle: saline) was 114 % of control and the T/C (dose: 3.0 mg/kg/injection, schedule: Q04DX003 (ip), vehicle: saline) was 115 % of control.
For `Cc1c(C(=O)O)cc2n(c1=O)Cc1cc3ccccc3nc1-2`, the T/C [12] was 95 % of control, the T/C (dose: 50.0 mg/kg/injection, schedule: Q04DX003 (ip), vehicle: saline) was 92 % of control and the T/C [13] was 113 % of control. The T/C [14] was 100 % of control, the T/C [15] was 100 % of control and the T/C [16] was 96 % of control.
